Experimental data published in ChEMBL document CHEMBL1147600, “Synthesis of 5'-C-methyl-1',3'-dioxolan-4'-yl nucleosides” (Bioorg Med Chem Lett, 2004).
The source made the active and inactive calls. No cut-off for these calls is given here.

Key:
Hepatitis B virus [1] = assay: Activity of compound against hepatitis B virus was determined; IA means inactive; assay type: functional, organism-based
Hepatitis C virus [2] = assay: Activity of compound against hepatitis C virus was determined; IA means inactive; assay type: functional, organism-based; details: Hepacivirus hominis
[3] = Toxicity against human lymphocytes was determined up to 100 uM concentration; NA means Not Active
Huh-7 = assay: Toxicity against human Huh7 cells was determined up to 100 uM concentration; NA means Not Active; assay type: cell-based
HepG2 = assay: Toxicity against human hepatoma HepG2 cells was determined up to 100 uM concentration; NA means Not Active; assay type: cell-based
Hepatitis B virus [4] = assay: Compound was evaluated against hepatitis B virus; IA means inactive; assay type: functional, organism-based
Hepatitis C virus [5] = assay: Compound was evaluated against hepatitis C virus; IA means inactive; assay type: functional, organism-based; details: Hepacivirus hominis

SMILES	Activity (Hepatitis B virus [1])	Activity (Hepatitis C virus [2])	Toxicity [3]	Toxicity (Huh-7)	Toxicity (HepG2)	Activity (Hepatitis B virus [4])	Activity (Hepatitis C virus [5])
C[C@H]1O[C@@H](COC(=O)c2ccccc2)O[C@@H]1n1cc(F)c(N)nc1=O	inactive	inactive	Not Active	Not Active	Not Active		
C[C@H]1O[C@@H](COC(=O)c2ccccc2)O[C@H]1n1cc(F)c(N)nc1=O			Not Active	Not Active	Not Active	inactive	inactive
C[C@H]1O[C@@H](CO)O[C@@H]1n1cc(F)c(N)nc1=O			Not Active	Not Active	Not Active	inactive	inactive
C[C@H]1O[C@@H](CO)O[C@H]1n1cc(F)c(N)nc1=O			Not Active	Not Active	Not Active	inactive	inactive
C[C@@H]1OC(CO)OC1n1cc(F)c(N)nc1=O (stereo not given in full)			Not Active	Not Active	Not Active	inactive	inactive
